The results in this text go back to patent US20260308536A1, “NOVEL URICASE VARIANTS AND METHODS OF USE THEREOF” (priority 2023, published 2026).

Holding throughout (format): biochemical
The target of assay [1] is T1, chimeric pig-baboon uricase variant 1 (dURC1), F75Q/K79E/T83Q/E90H/F96H/I100H/Y105D/V119K/Y127H/F172Y/L260N, SEQ ID NO: 1 (Sus scrofa, UniProt P16164, E96H/F102H/F178Y/F81Q/I106H/K85E/L266N/R291K/S46T/T301S/T89Q/V125K/Y111D/Y133H).
T1 construct: purified
T1 sequence (P16164 with tags, fused parts or gaps S46T/F81Q/K85E/T89Q/E96H/F102H/I106H/Y111D/V125K/Y133H/F178Y/L266N/R291K/T301S): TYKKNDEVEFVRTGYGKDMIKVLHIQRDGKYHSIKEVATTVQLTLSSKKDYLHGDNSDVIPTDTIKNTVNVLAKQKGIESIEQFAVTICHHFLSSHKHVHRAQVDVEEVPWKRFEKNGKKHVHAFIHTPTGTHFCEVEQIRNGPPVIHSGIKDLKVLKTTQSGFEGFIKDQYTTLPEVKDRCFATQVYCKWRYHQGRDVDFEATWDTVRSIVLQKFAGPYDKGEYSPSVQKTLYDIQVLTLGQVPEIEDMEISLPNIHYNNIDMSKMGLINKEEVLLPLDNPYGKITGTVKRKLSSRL
Put plainly: Michaelis Menten kinetics of uric acid conversion, dURC1. To be noted: role: substrate; purified enzyme, non-linear regression; Table 3. Here is the method: (§1) Variants 1 (dURC1) and 3 (dURC3) were identified as possible lead candidates. Besides the mutations according to the library design, i.e., the designed mutations of F75Q; K79N; T83Q; E90H; F96H; I100E; Y105D; V119K; F172Y; L260N; and I262T, dURC3 comprised an off-position amino acid mutation K76N. An off-position amino acid mutation is defined as having a non-designed amino acid at a non-target site. […] Specifically, in the dURC1 backbone, the following mutations were tested separately: L154T; K155D; K155N; L157H; L157T; T159E; T159Q; and S162D; and in the dURC3 backbone, the K155N mutation was tested. […] The characteristics, including yield, activity, melting temperature measured by DSF, temperature at which 50% of normal activity was lost after heating measured by heat stress activity assay, Michaelis-Menten kinetics parameters, of variants 1, 2, 3, and 4 (i.e., dURC1, dURC2, dURC3 and dURC4), as well as the wild type chimeric pig-baboon uricase, are summarized in Table 2. The amino acid sequences of dURC1, dURC2, dURC3 and dURC4 are shown as SEQ ID NO: 1, 2, 3, and 4, respectively.
(§2) The activity of the purified enzymes was quantified by Michaelis Menten kinetic analysis, using the solution phase microplate assay across a range of substrate concentrations (FIG. 4B).

The target in assay [2] is T2, chimeric pig-baboon uricase variant 2 (dURC2), F75Q/K79E/T83Q/E90H/F96H/I100H/Y105D/V119K/Y127H/K155N/F172Y/L260N, SEQ ID NO: 2 (Sus scrofa, UniProt P16164, E96H/F102H/F178Y/F81Q/I106H/K161N/K85E/L266N/R291K/S46T/T301S/T89Q/V125K/Y111D/Y133H).
T2 construct: purified
T2 sequence (P16164 with tags, fused parts or gaps S46T/F81Q/K85E/T89Q/E96H/F102H/I106H/Y111D/V125K/Y133H/K161N/F178Y/L266N/R291K/T301S): T1 sequence (P16164 with tags, fused parts or gaps S46T/F81Q/K85E/T89Q/E96H/F102H/I106H/Y111D/V125K/Y133H/F178Y/L266N/R291K/T301S) with K155N
Put plainly: Michaelis Menten kinetics of uric acid conversion, dURC2. To be noted: role: substrate; purified enzyme, non-linear regression; Table 3. The protocol:
as §1, §2

The target of assay [3] is T3, chimeric pig-baboon uricase variant 3 (dURC3), F75Q/K76N/K79N/T83Q/E90H/F96H/I100E/Y105D/V119K/F172Y/L260N/I262T, SEQ ID NO: 3 (Sus scrofa, UniProt P16164, E96H/F102H/F178Y/F81Q/I106E/I268T/K82N/K85N/L266N/R291K/S46T/T301S/T89Q/V125K/Y111D).
T3 construct: purified
T3 sequence (P16164 with tags, fused parts or gaps S46T/F81Q/K82N/K85N/T89Q/E96H/F102H/I106E/Y111D/V125K/F178Y/L266N/I268T/R291K/T301S): T1 sequence (P16164 with tags, fused parts or gaps S46T/F81Q/K85E/T89Q/E96H/F102H/I106H/Y111D/V125K/Y133H/F178Y/L266N/R291K/T301S) with K76N, E79N, H100E, H127Y, I262T
Put plainly: Michaelis Menten kinetics of uric acid conversion, dURC3. To be noted: role: substrate. Here is the method: An off-position amino acid mutation is defined as having a non-designed amino acid at a non-target site. […] Specifically, in the dURC1 backbone, the following mutations were tested separately: L154T; K155D; K155N; L157H; L157T; T159E; T159Q; and S162D; and in the dURC3 backbone, the K155N mutation was tested. […] The amino acid sequences of dURC1, dURC2, dURC3 and dURC4 are shown as SEQ ID NO: 1, 2, 3, and 4, respectively.
as §2

Assay [4] has as its target T4, chimeric pig-baboon uricase variant 4 (dURC4), F75Q/K76N/K79N/T83Q/E90H/F96H/I100E/Y105D/V119K/K155N/F172Y/L260N/I262T, SEQ ID NO: 4 (Sus scrofa, UniProt P16164, E96H/F102H/F178Y/F81Q/I106E/I268T/K161N/K82N/K85N/L266N/R291K/S46T/T301S/T89Q/V125K/Y111D).
T4 construct: purified
T4 sequence (P16164 with tags, fused parts or gaps S46T/F81Q/K82N/K85N/T89Q/E96H/F102H/I106E/Y111D/V125K/K161N/F178Y/L266N/I268T/R291K/T301S): T1 sequence (P16164 with tags, fused parts or gaps S46T/F81Q/K85E/T89Q/E96H/F102H/I106H/Y111D/V125K/Y133H/F178Y/L266N/R291K/T301S) with K76N, E79N, H100E, H127Y, K155N, I262T
Put plainly: Michaelis Menten kinetics of uric acid conversion, dURC4. To be noted: role: substrate; purified enzyme, non-linear regression; Table 3. The protocol:
as §1, §2

The target of assay [5] is T5, chimeric pig-baboon uricase, wild type, SEQ ID NO: 5 (Sus scrofa, UniProt P16164, R291K/S46T/T301S).
T5 construct: His6 (C); made in house; host or cells: E. coli
T5 sequence (P16164 with tags, fused parts or gaps S46T/R291K/T301S): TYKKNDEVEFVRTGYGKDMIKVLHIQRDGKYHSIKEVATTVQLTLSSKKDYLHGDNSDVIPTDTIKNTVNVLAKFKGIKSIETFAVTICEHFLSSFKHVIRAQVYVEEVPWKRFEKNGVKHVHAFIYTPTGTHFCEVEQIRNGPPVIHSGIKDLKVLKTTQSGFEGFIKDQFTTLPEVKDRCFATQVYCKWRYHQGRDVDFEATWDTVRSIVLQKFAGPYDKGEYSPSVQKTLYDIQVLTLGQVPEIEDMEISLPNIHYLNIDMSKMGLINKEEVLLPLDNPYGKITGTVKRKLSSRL
The assay can be described thus: Michaelis Menten kinetics of uric acid conversion, wild type chimeric pig-baboon uricase. To be noted: role: substrate; purified enzyme, non-linear regression; Table 3.
Excerpt: The monomeric form of the wild type chimeric pig-baboon uricase comprises the amino acid sequence of SEQ ID NO:5, where threonine is residue #1. The specified mutations in the chimeric pig-baboon uricase variants of this example are indexed to threonine as residue #1, as in SEQ ID NO:5. […] The expression vector pET-26b(+) encodes a His tag containing 6 histidine residues at the C-terminus of the inserted uricase gene.
as §2

The target of assay [6] is T6, PEGylated chimeric pig-baboon uricase variant dURC3, F75Q/K76N/K79N/T83Q/E90H/F96H/I100E/Y105D/V119K/F172Y/L260N/I262T, SEQ ID NO: 3 (Sus scrofa, UniProt P16164, E96H/F102H/F178Y/F81Q/I106E/I268T/K82N/K85N/L266N/R291K/S46T/T301S/T89Q/V125K/Y111D).
T6 construct: purified, PEGylated with 10 kDa mPEG-NHS, about 10 PEG per monomer
T6 sequence (P16164 with tags, fused parts or gaps S46T/F81Q/K82N/K85N/T89Q/E96H/F102H/I106E/Y111D/V125K/F178Y/L266N/I268T/R291K/T301S): T1 sequence (P16164 with tags, fused parts or gaps S46T/F81Q/K85E/T89Q/E96H/F102H/I106H/Y111D/V125K/Y133H/F178Y/L266N/R291K/T301S) with K76N, E79N, H100E, H127Y, I262T
Put plainly: Michaelis Menten kinetics of uric acid conversion, PEGylated dURC3. To be noted: role: substrate, Table 4. Here is the method: (§3) PEGylation of the wild type chimeric pig-baboon uricase or its variants was performed by the following procedure: • (1) adding 50 fold molar excess methoxy-PEG-(CH2)5COO—NHS of 10 kDa in molecular weight (Chemical Name: Poly(oxy-1,2-ethanediyl), α-methyl-ω-{2-[(2,5-dioxo-1-pyrrolidinyl)oxy]-6-oxohexyloxy}; NOF America Corporation, Cat #SUNBRIGHT ME-100HS) to purified uricase protein on ice and incubating with stirring for one hour; • (2) verifying radius by DLS (14-15 nm radius ~=wild type); • (3) concentrating PEGylated protein using stirred cell with 50 kDa filter to 15 ml; • (4) loading the concentrated PEGylated protein onto a SUPERDEX 200 HILOAD 26/600 column and eluting with PBS; • (5) pooling fractions identified as being mono-disperse by DLS; • (6) concentrating the pooled fractions using a stirred cell with 50 kDa filter to 5 mg/ml.
(§4) dURC3 and the wild type chimeric pig-baboon uricase were successfully PEGylated, with an average of about 10 PEG molecules conjugated to a uricase monomer, based on SDS-PAGE and size exclusion chromatography with multi-angle static light scattering (SEC-MALS) analysis. The activity quantified by Michaelis Menten kinetic analysis, as well as the melting temperature quantified by differential scanning fluorimetry, of PEGylated dURC3 and PEGylated wild type chimeric pig-baboon uricase was determined using the methods described in Example 1.

In assay [7] the target is T7, PEGylated chimeric pig-baboon uricase, wild type, SEQ ID NO: 5 (Sus scrofa, UniProt P16164, R291K/S46T/T301S).
T7 construct: His6 (C); made in house; host or cells: E. coli
T7 sequence (P16164 with tags, fused parts or gaps S46T/R291K/T301S limits assumed): T5 sequence (P16164 with tags, fused parts or gaps S46T/R291K/T301S)
Put plainly: Michaelis Menten kinetics of uric acid conversion, PEGylated wild type chimeric pig-baboon uricase. To be noted: role: substrate, Table 4. The protocol: as §3, §4

Molecules are shown by their SMILES. Changes are numbered by the printed parent chain.

Turning to `O=c1[nH]c(=O)c2[nH]c(=O)[nH]c2[nH]1` [uric acid], the Apparent kcat was 43 ± 2 arbitrary units in assay [1]; 34 ± 1 arbitrary units in assay [2]; 40 ± 2 arbitrary units in assay [3] (purified enzyme, non-linear regression, Table 3); 28.0 ± 0.5 arbitrary units in assay [4]; 30 ± 1 arbitrary units in assay [5]. Also, the “higher apparent kcat compared to the wild type” value in assay [3] (dURC3 relative to wild type chimeric pig-baboon uricase) is given as 33%. Further, the Vmax is recorded as 67 Δabs/min in assay [6] and 170 Δabs/min in assay [7].
